The record followed here is paper PMC4910235, “Selenophene and thiophene-core estrogen receptor ligands that inhibit motility and development of parasitic stages of Haemonchus contortus” (Parasites & Vectors, 2016).

Structures are written as SMILES. Where two headings read alike, the source gives them in different places.

As usually defined, the melting point is the temperature of the solid-liquid transition.

Data set [1] has as its system exsheathed third-stage larvae (xL3s) of H. contortus. The data set is described as follows: xL3 motility assay (whole-organism screen and dose-response). It counts as cell-based, Haemonchus contortus. As to conditions: for activity at 20 µM: Haemonchus contortus, 72 h, percent of motility compared with controls, mean of triplicate ± SEM. On the procedure:
The selenophene and thiophene-core ligands (n = 74) (Additional file 1) were screened at a concentration of 20 μM on exsheathed third-stage larvae (xL3s) of H. contortus in 96-well microculture plates (cat. no. 3635; Corning 3650, Life Sciences, Corning, USA) using relevant control compounds (i.e. moxidectin and monepantel), as described previously. In brief, compounds were dissolved to a stock concentration of 10 mM in either dimethyl sulfoxide (DMSO) or methanol (Sigma-Adrich Scientific, St. Louis, USA). These ligands were then individually diluted to the final concentration of 20 μM using Luria Bertani medium (LB) supplemented with 100 IU/ml of penicillin, 100 μg/ml of streptomycin and 2.5 μg/ml of amphotericin (LB*). Compounds were dispensed (in triplicate) into the wells of a 96-well microculture plate using a multichannel pipette. In addition, the negative controls (LB*, LB* + 0.5 % solvent; six wells each), and positive controls (20 μM of monepantel; Zolvix, Novartis Animal Health, Basel, Switzerland and 20 μM of moxidectin; Cydectin, Virbac, Carros, France; triplicate wells) and xL3s (~300/well) were dispensed into wells of the plate using an automated multichannel pipette (Viaflo Assist/II, Integra Biosciences, Zizers, Switzerland). […], a video recording (5 s) was taken of each well of the 96-well microculture plate (containing xL3s) using a greyscale camera (Rolera Bolt CMOS, Qimaging Scientific, Surrey, Canada) and a motorised X-Y axis stage (BioPoint 2, Ludl Electronics Products, Hawthorne, USA). Individual videos were processed to calculate a motility index (MI) using an algorithm described previously. MIs were normalised to the negative and positive controls (to remove plate-to-plate variation) using the program Prism (v.6 GraphPad Software, USA). Z’-scores were calculated to validate the performance of the screening assay; reliable assays achieve Z’-scores of between 0.5 and 1 [28]. A compound was recorded as having an activity if it reduced xL3 motility by ≥ 70 % following incubation for 72 h. […] Compounds that reduced the motility of xL3s were also tested for their ability to inhibit the motility of L4s (same protocol as for xL3s) and/or to affect the development of xL3s to L4s. Following the measurement of L4 motility, larvae were re-incubated for 4 more days and fixed with 1 % iodine (50 μl). Then, L4 development was assessed based on the presence of a well-developed mouth/pharynx using a light microscope and expressed as a percentage of the total number of larvae examined (n = 30).
All assays (to assess xL3 motility, L4 development and L4 motility) were performed in triplicate, three times, on separate days.

[2] abbreviates: 20 μM, read-out: xL3 Motility Index(%).
The mark [3] stands for this setting: read-out: xL3 Motility Index(%), 20 μM, 72 h.

For `COc1ccc(-c2cscc2-c2ccc(OC)cc2Cl)c(Cl)c1` [MJ-4], the melting point was in the range of 121 to 125 °C. Besides, the “activity on xL3 motility, in words” value in data set [1] (20 μM) is recorded as “Poor activity”. Also, the activity at 20 µM in data set [1] (setting [2]) is 81.6 ± 15.7%.

Consider `Oc1ccc(-c2ccc(-c3ccc(O)cc3F)[se]2)c(F)c1` [WZY-3], for which the activity at 20 µM in data set [1] (setting [3]) came to 100 ± 7.7%.

On to `Oc1ccc(-c2ccsc2-c2ccc(O)cc2Cl)c(Cl)c1` [MJ-32], for which, in data set [1] (20 μM), the “activity on xL3 motility, in words” value is listed as “lost all activity”. Moreover, in data set [1] (setting [2]), the activity at 20 µM worked out at 102 ± 3.6%.

Take `Oc1ccc(-c2cc(Br)c(-c3ccc(O)c(Cl)c3)[se]2)cc1Cl` [WZY-4]: the “activity on xL3 motility, in words” value in data set [1] (20 μM) was ““lost” activity”. Also, the activity at 20 µM in data set [1] (setting [3]) was 123 ± 7.8%.

For `Oc1ccc(-c2ccc(-c3ccc(O)cc3Cl)s2)c(Cl)c1` [MJ-29], the activity at 20 µM in data set [1] (setting [2]) was 66.6 ± 2.7%.

`Oc1ccc(-c2cscc2-c2ccc(O)cc2)cc1` [MJ-35]: the “activity on xL3 motility, in words” value in data set [1] (20 μM) is “complete loss of activity”. Also, the activity at 20 µM in data set [1] (setting [2]) was determined as 102 ± 1.5%.

`COc1ccc(-c2ccc(-c3ccc(OC)cc3Cl)[se]2)c(Cl)c1` [WZY-1]: the “activity on xL3 motility, in words” value in data set [1] (20 μM) is listed as “limited reduction in motility”. Further, in data set [1] (setting [3]), the activity at 20 µM came to 77.9 ± 6.6%.

For `COc1c(C)cc(-c2cc(Br)c(-c3cc(C)c(OC)c(C)c3)[se]2)cc1C` [WZY-5], the “activity on xL3 motility, in words” value in data set [1] (20 μM) was ““lost” activity”. Moreover, the activity at 20 µM in data set [1] (setting [3]) worked out at 105 ± 18.6%.

`Cc1cc(-c2cscc2-c2ccc(O)c(C)c2)ccc1O` [MJ-33]: the “activity on xL3 motility, in words” value in data set [1] (20 μM) is on record as “poor activity”. In addition, the activity at 20 µM in data set [1] (setting [2]) amounted to 85.5 ± 10.6%.
